23 compounds from patent US20240294522A1 (Lead Discovery Center GmbH, priority 2021, published 2024) can be followed below.

Experiment [1] deals with T1, GRK2 (Homo sapiens, UniProt P25098).
T1 construct: purchased Thermo Scientific
T1 sequence (P25098 1-689): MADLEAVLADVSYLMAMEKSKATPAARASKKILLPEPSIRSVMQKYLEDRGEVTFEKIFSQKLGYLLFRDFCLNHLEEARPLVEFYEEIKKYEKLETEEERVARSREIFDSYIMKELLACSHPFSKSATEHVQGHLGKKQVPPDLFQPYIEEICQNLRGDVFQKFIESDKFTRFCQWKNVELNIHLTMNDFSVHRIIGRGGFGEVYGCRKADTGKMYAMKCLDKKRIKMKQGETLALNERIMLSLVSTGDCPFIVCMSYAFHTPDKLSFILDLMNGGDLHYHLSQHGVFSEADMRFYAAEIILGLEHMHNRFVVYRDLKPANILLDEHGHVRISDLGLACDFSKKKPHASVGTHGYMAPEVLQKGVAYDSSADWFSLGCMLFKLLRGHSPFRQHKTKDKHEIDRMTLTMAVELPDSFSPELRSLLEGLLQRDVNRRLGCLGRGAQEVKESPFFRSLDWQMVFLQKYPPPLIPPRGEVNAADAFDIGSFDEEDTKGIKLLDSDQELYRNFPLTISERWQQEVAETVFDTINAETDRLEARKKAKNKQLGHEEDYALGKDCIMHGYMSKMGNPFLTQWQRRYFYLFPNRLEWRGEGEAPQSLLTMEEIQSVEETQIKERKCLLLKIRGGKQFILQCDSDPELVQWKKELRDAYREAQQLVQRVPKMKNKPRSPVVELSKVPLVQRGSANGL
In words: Lance Kinase Activity Assay, GRK2. The following applies: biochemical Lance kinase activity assay; class symbols A-F; read-out: GRK2 LANCE Assay (IC-50). Here is the method: (§1) This protocol describes how the Lance Kinase Activity Assay was performed to determine IC50 values of compounds of general formula (I) against GRK5 and GRK2.
(§2) The principle behind this enzymatic assay is based upon the phosphorylation of the Ulight-peptide substrate. It is detected by using a specific EU-labeled anti-phospho peptide antibody. The binding of the Eu labeled anti-phospho peptide antibody to the phosphorylated ULight labeled peptide gives rise to a FRET-signal. Binding of an inhibitor to the kinase prevents phosphorylation of the Ulight-substrate, resulting in a loss of FRET. In tables 2 and 3 the relevant information for these two LANCE assays is summarized.
(§3) For every sample, 2 μl of assay buffer (50 mM HEPES pH 7,5, 10 mM MgCL2, 1 mM EGTA 0,01% Tween 20, 1% DMSO, 2 mM DTT) were transferred into a suitable assay plate (e.g. Corning #3673). Compounds were added in a concentration range from 10 μM to 0.0025 μM using an acoustic dispenser (Echo520 from Labcycte, San Jose, USA) equipped with Echo Dose Response software. After that 6 μl of kinase-substrate mix was added. Reaction was started by addition of 2 μl ATP working solution and mixed using a Bioshake 5000 microplate shaker (Q Instruments, Jena, Germany).
(§4) After 1 h incubation at room temperature the reaction was stopped with 10 μl detection mix containing the Eu-labeled phosphospecific antibody and 10 mM EDTA. After a second incubation period of 1 h at room temperature the FRET signal was measured at 340 nm excitation, 665 nm and 615 nm emission (for the ULight-substrate and Eu-AB, respectively) with an Envision microplate reader (Perkin Elmer, Waltham, MA, USA) with 50 μs delay and 300 μs integration time. IC50 values were determined from the sigmoidal dose response curves with the software Quattro Workflow (Quattro GmbH, Munich, Germany).
(§5) Inhibition is indicated as IC50 [nM] (“−”=not measured). Compounds having an activity designated as “A” provided an IC50≤50 nM; compounds having an activity designated as “B” provided an 50 nM<IC50≤100 nM; compounds having an activity designated as “C” provided an 100 nM<IC50≤500 nM; compounds having an activity designated as “D” provided an 500 nM<IC50≤1000 nM; compounds having an activity designated as “E” provided an 1000 nM<IC50≤10000 nM; and compounds having an activity designated as “F” provided an IC50>10000 nM.
(TR-FRET usually uses a lanthanide donor and a delayed reading to cut background.)

Experiment [2] has as its target T2, GRK5 (Homo sapiens, UniProt P34947).
T2 construct: purchased Thermo Scientific
As to the kind of experiment: Lance Kinase Activity Assay, GRK5. The following applies: biochemical Lance kinase activity assay; class symbols A-F; read-out: GRK5 LANCE Assay (IC-50). How it is done: as §1, §2, §3, §4, §5

pIC50: −log10 of the molar value.

T2 sequence (P34947 whole entry): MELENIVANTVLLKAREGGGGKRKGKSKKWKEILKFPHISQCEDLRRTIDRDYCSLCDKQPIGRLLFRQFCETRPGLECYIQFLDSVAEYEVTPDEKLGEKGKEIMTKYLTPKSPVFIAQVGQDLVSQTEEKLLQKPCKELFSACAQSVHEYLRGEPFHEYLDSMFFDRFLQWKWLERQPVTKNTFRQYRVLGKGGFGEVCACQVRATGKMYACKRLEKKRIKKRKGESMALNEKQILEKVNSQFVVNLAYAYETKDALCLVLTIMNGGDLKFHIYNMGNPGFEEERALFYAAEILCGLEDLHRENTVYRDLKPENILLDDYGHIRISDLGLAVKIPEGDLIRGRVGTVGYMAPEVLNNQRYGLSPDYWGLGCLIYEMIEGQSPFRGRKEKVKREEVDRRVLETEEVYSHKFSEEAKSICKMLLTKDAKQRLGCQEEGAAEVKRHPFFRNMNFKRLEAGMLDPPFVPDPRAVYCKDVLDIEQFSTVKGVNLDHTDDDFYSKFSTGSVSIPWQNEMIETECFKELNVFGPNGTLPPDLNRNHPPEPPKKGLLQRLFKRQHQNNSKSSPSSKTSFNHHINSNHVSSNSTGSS

Turning to `Cc1nn(C)c2ccc([C@@H](C)NC(=O)/C(C#N)=C/c3c[nH]c4ncc(-c5cnn(C)c5)cc34)cc12` [Example 262, (R,E)-2-cyano-N-(1-(1,3-dimethyl-1H-indazol-5-yl)ethyl)-3-(5-(1-methyl-1H-pyrazol-4-yl)-1H-pyrrolo[2,3-b]pyridin-3-yl)acrylamide], the results for the pIC50 in experiment [1] and in experiment [2] were less than 5.00 and no less than 7.30, respectively.
In the same order, the values of `COc1ccc([C@@H](C)NC(=O)/C(C#N)=C/c2c[nH]c3ncc(-c4ccc(CCN(C)C)cc4)cc23)cc1OC` [Example 134] are 5.00 to 6.00 and no less than 7.30.
For `COc1ccc([C@@H](C)NC(=O)/C(C#N)=C/c2c[nH]c3ncc(O[C@H]4CCOC4)cc23)cc1OC` [Example 108, (E)-2-cyano-N-((R)-1-(3,4-dimethoxyphenyl)ethyl)-3-(5-(((S)-tetrahydrofuran-3-yl)oxy)-1H-pyrrolo[2,3-b]pyridin-3-yl)acrylamide] the same measures were 5.00 to 6.00 and no less than 7.30.
Take `COc1ccc([C@@H](C)NC(=O)/C=C/c2c[nH]c3ncc(-c4ccc(N5CCN(C(C)=O)CC5)cc4)cc23)cc1OC` [Example 182]: the pIC50 is 6.30 to 7.00 in experiment [1] and no less than 7.30 in experiment [2].
For `COc1ccc([C@@H](C)NC(=O)/C(C#N)=C/c2c[nH]c3ncc(-c4ccc(C5CCN(C)CC5)cc4)cc23)cc1OC` [Example 132, (R,E)-2-cyano-N-(1-(3,4-dimethoxyphenyl)ethyl)-3-(5-(4-(1-methylpiperidin-4-yl)phenyl)-1H-pyrrolo[2,3-b]pyridin-3-yl)acrylamide] the same measures were 6.00 to 6.30 and no less than 7.30.
In the same order, the values of `COc1ccc([C@@H](C)NC(=O)/C(C#N)=C/c2c[nH]c3ncc(-c4cnn(CC(C)C)c4)cc23)cc1OC` [Example 161, (R,E)-2-cyano-N-(1-(3,4-dimethoxyphenyl)ethyl)-3-(5-(1-isobutyl-1H-pyrazol-4-yl)-1H-pyrrolo[2,3-b]pyridin-3-yl)acrylamide] are less than 5.00 and no less than 7.30.
For `C[C@@H](NC(=O)/C(C#N)=C/c1c[nH]c2ncccc12)c1ccccc1` [Example 64, (R,E)-2-cyano-N-(1-phenylethyl)-3-(1H-pyrrolo[2,3-b]pyridin-3-yl)acrylamide] the same measures were 6.30 to 7.00 and 7.00 to 7.30.
On to `CC(NC(=O)/C(C#N)=C/c1c[nH]c2ncccc12)c1ccc(F)cc1` (stereo not shown) [Example 63, (E)-2-cyano-N-(1-(4-fluorophenyl)ethyl)-3-(1H-pyrrolo[2,3-b]pyridin-3-yl)acrylamide], for which the pIC50 in experiment [1] and in experiment [2] was 6.30 to 7.00 throughout.
As for `COc1ccc([C@@H](C)NC(=O)/C=C/c2c[nH]c3nccc(-c4cccc(C(N)=O)c4)c23)cc1OC` [Example 233, (R,E)-3-(3-(3-((1-(3,4-dimethoxyphenyl)ethyl)amino)-3-oxoprop-1-en-1-yl)-1H-pyrrolo[2,3-b]pyridin-4-yl)benzamide], the figures for the pIC50 in experiment [1] and in experiment [2] were 5.00 to 6.00 and 7.00 to 7.30, respectively.
In the case of `COc1ccc(C(C)NC(=O)/C=C/c2c[nH]c3ncc(-c4cnn(C)c4)cc23)cc1C1CC1` (stereo not shown) [Example 253, (E)-N-(1-(3-cyclopropyl-4-methoxyphenyl)ethyl)-3-(5-(1-methyl-1H-pyrazol-4-yl)-1H-pyrrolo[2,3-b]pyridin-3-yl)acrylamide], the pIC50 in experiment [1] was less than 5.00; in experiment [2], 7.00 to 7.30.
For `N#C/C(=C\c1c[nH]c2ncccc12)C(=O)NCc1cccc(C(F)(F)F)c1` [Example 61, (E)-2-cyano-3-(1H-pyrrolo[2,3-b]pyridin-3-yl)-N-(3-(trifluoromethyl)benzyl)acrylamide], the values for the pIC50 in experiment [1] and in experiment [2] were 5.00 to 6.00 and 6.00 to 6.30, respectively.
In the same order, the values of `N#C/C(=C\c1c[nH]c2ncccc12)C(=O)NCc1ccccc1CN1CCCC1=O` [Example 44, (E)-2-cyano-N-(2-((2-oxopyrrolidin-1-yl)methyl)benzyl)-3-(1H-pyrrolo[2,3-b]pyridin-3-yl)acrylamide] are 5.00 to 6.00 and 5.00 to 6.00.
For `COc1ccc([C@@H](C)NC(=O)/C=C/c2c[nH]c3nccc(-c4ccc(CN5CCN(C)CC5)cc4)c23)cc1OC` [Example 234, (R,E)-N-(1-(3,4-dimethoxyphenyl)ethyl)-3-(4-(4-((4-methylpiperazin-1-yl)methyl)phenyl)-1H-pyrrolo[2,3-b]pyridin-3-yl)acrylamide] the same measures were 5.00 to 6.00 and 6.30 to 7.00.
For `COc1ccc([C@@H](C)NC(=O)/C=C/c2c[nH]c3ncc(-c4cc(F)cc(F)c4)cc23)cc1OC` [Example 115, (R,E)-3-(5-(3,5-difluorophenyl)-1H-pyrrolo[2,3-b]pyridin-3-yl)-N-(1-(3,4-dimethoxyphenyl)ethyl)acrylamide] the same measures were less than 5.00 and 6.30 to 7.00.
`Cc1c(-c2cnn(C)c2)cnc2[nH]cc(/C=C(\C#N)C(=O)N[C@H](C)c3ccc(Cl)cc3)c12` [Example 100, (R,E)-N-(1-(4-chlorophenyl)ethyl)-2-cyano-3-(4-methyl-5-(1-methyl-1H-pyrazol-4-yl)-1H-pyrrolo[2,3-b]pyridin-3-yl)acrylamide]: the pIC50 was 5.00 to 6.00 in experiment [1] and 6.00 to 6.30 in experiment [2].
In the same order, the values of `COc1ccc(-c2cnc3[nH]cc(/C=C(/C#N)C(=O)N[C@H](C)c4ccc(OC)c(OC)c4)c3c2)cc1OC` [Example 146] are less than 5.00 and 7.00 to 7.30.
In the same order, the values of `CC(NC(=O)/C=C/c1c[nH]c2ncccc12)c1ccc(F)cc1` (stereo not shown) [Example 10, (E)-N-(1-(4-fluorophenyl)ethyl)-3-(1H-pyrrolo[2,3-b]pyridin-3-yl)acrylamide] are 5.00 to 6.00 and 5.00 to 6.00.
In the same order, the values of `COc1ccc([C@@H](C)NC(=O)/C(C#N)=C/c2c[nH]c3ncc(-c4ccc(C#N)cc4)cc23)cc1OC` [Example 139] are less than 5.00 and 7.00 to 7.30.
As for `COc1ccc([C@@H](C)NC(=O)/C(C#N)=C/c2c[nH]c3ncc(-c4ccc(NC(C)=O)cc4)cc23)cc1OC` [Example 142], the pIC50 in experiment [1] was 5.00 to 6.00; in experiment [2] it was no less than 7.30.
For the compound `COc1ccc([C@@H](C)NC(=O)/C=C/c2c[nH]c3ncc(-c4cccc(CCN(C)C)c4)cc23)cc1OC` [Example 192], the pIC50 in experiment [1] was 5.00 to 6.00; in experiment [2], no less than 7.30.
For `COc1cccc([C@@H](C)NC(=O)/C(C#N)=C/c2c[nH]c3ncccc23)c1` [Example 33, (R,E)-2-cyano-N-(1-(3-methoxyphenyl)ethyl)-3-(1H-pyrrolo[2,3-b]pyridin-3-yl)acrylamide] the same measures were no less than 7.30 and no less than 7.30.
In the same order, the values of `N#C/C(=C\c1c[nH]c2ncccc12)C(=O)NCc1ccc(F)c(F)c1` [Example 66, (E)-2-cyano-N-(3,4-difluorobenzyl)-3-(1H-pyrrolo[2,3-b]pyridin-3-yl)acrylamide] are 6.30 to 7.00 and 6.30 to 7.00.
In the same order, the values of `COc1ccc([C@@H](C)NC(=O)/C(C#N)=C/c2c[nH]c3ncc(N4CCOCC4)cc23)cc1OC` [Example 84, (R,E)-2-cyano-N-(1-(3,4-dimethoxyphenyl)ethyl)-3-(5-morpholino-1H-pyrrolo[2,3-b]pyridin-3-yl)acrylamide] are 5.00 to 6.00 and no less than 7.30.
